Experimental data from PMC9667936, “Functional mapping of the 14-3-3 hub protein as a guide to design 14-3-3 molecular glues” (Chemical Science, 2022).
Read-outs that look alike come from different tables or passages of the source. Where a SMILES comes first, the peptide text is derived from it. [ ]: non-standard residue; d: D form. ξ: configuration not given here. Phe(4-NO2) = N[C@@H](Cc1ccc([N+](=O)[O-])cc1)C(=O)O; ξAla(4-thiazolyl) = NC(Cc1cscn1)C(=O)O; pS = N[C@@H](COP(=O)(O)O)C(=O)O; β3hS = N[C@@H](CO)CC(=O)O; Nva = CCC[C@H](N)C(=O)O; ξβ3hS = NC(CO)CC(=O)O; βAla = NCCC(=O)O

Biological target: T1, 14-3-3γ (Homo sapiens, UniProt P61981)
T1 construct: made in house; host or cells: E. coli NiCo21 (DE3)
T1 sequence (P61981 1-247): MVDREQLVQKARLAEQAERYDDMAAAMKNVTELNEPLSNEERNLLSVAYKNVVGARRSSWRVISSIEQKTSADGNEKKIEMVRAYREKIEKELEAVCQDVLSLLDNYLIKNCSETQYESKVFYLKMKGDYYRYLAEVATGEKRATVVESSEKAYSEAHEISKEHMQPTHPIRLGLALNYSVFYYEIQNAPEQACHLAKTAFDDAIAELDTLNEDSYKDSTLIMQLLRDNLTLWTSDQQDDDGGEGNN
Experiment: Isothermal titration calorimetry (ITC) of 14-3-3 binding to peptide
Settings: for ΔG / Kd / ΔH / -TΔS / ΔH (ITC) / -TΔS (ITC) / ΔG (ITC) / KD (ITC): 25 °C; for Kd: Table S6 (unit as in Table S5)
Protocol: 14-3-3γ protein expression (FP/ITC experiments)
A pPROEX HTb expression vector encoding the human 14-3-3 protein gamma (14-3-3γ) with an N-terminal his6-tag was transformed by heat shock into NiCo21 (DE3) competent cells. Single colonies were cultured in 50 mL LB medium (100 µg/mL ampicillin). After overnight incubation at 37 °C, cultures were transferred to 2 L TB media (100 µg/mL ampicillin, 1 mM MgCl2) and incubated at 37 °C until an OD600 nm of 0.8-1.2 was reached. Protein expression was then induced with 0.4 mM isopropyl-β-d-thiogalactoside (IPTG), and cultures were incubated overnight at 18 °C. Cells were harvested by centrifugation (8600 rpm, 20 minutes, 4 °C) and resuspended in lysis buffer (50 mM Hepes, pH 8.0, 300 mM NaCl, 12.5 mM imidazole, 5 mM MgCl2, 2 mM βME) containing cOmplete™ EDTA-free Protease Inhibitor Cocktail tablets (1 tablet/100 ml lysate) and benzonase (1 µl/100 ml). After lysis using a C3 Emulsiflex-C3 homogenizer (Avestin), the cell lysate was cleared by centrifugation (20000 rpm, 30 minutes, 4 °C) and purified using Ni2+-affinity chromatography (Ni-NTA superflow cartridges, Qiagen).
Typically two 5 mL columns (flow 5 mL/min) were used for a 2 L culture in which the lysate was loaded on the column washed with 10 CV wash buffer (50 mM Hepes, pH 8.0, 300 mM NaCl, 25 mM imidazole, 2 mM βME) and eluted in several fractions (2-4 CV) of elution buffer (50 mM Hepes, pH 8.0, 300 mM NaCl, 250 mM imidazole, 2 mM βME). Fractions containing the 14-3-3 protein were combined and dialyzed into 25 mM HEPES pH 8.0, 100 mM NaCl, 10 mM MgCl2, 500 µM TCEP. […]
The peptides 1 and 2a-d were synthesized on 50 µmol scale on a Rink amide MBHA resin (Novabiochem, 0.52 mmol/g loading) using an automated Intavis MultiPep RSi peptide synthesizer.
Deprotection was performed twice per cycle with 20% v/v piperidine in DMF for 8 minutes. Fmoc-protected amino acids were mixed in 5 equivalents of HBTU and 9 equivalents of DIPEA in DMF, and coupled to the resin. With the exception of phosphoserine, which was coupled once for 60 minutes, all amino acids were coupled to the resin twice for 30 minutes. Capping of unreacted amino acids was performed with a mixture of acetic anhydride/pyridine/DMF (1:1:3) for 5 minutes. βAla was incorporated as a spacer between the sequence and Lys(Alloc), to which a FITC fluorophore will be coupled for fluorescence anisotropy studies.
The peptides 1 and 2e-i were synthesized manually on a 50 µmol scale using Rink amide MBHA resin (Novabiochem, 0.52 mmol/g loading) via Fmoc based solid phase peptide synthesis. […]
(lex: 485 ± 20 nm; lem: 535 ± 25 nm; mirror: Dichroic 510; flashes: 20; integration time: 50 ms; settle time:
0 ms; gain: optimal; and Z-position: calculated from well). […]
Data was obtained and averaged based on two
To determine the cooperativity parameters from the 2D-titration of 14-3-3/ChREBP/2d (as described above) we have used the general framework for straightforward model construction of multi-component thermodynamic equilibrium systems as described by Geertjens et al. (2021).10 This general platform generates a model to describe multi-component equilibrium systems when given a system description.
In our case we gave the following system description: […]
α (with 95% confidence interval) and the error-landscape of the determine parameters.
Fluorescence anisotropy (FA) – Selectivity study: Peptides representing 14-3-3 binding partners (including ChREBP) were titrated in a 2-fold dilution series (starting at 100 µM) to 20 nM of fluorescein-labeled peptide 2d in presence and absence of, respectively, 2 µM 14-3-3γ in FA buffer (10 mM HEPES pH 7.4, 150 mM NaCl, 0.1% (v/v) Tween20, 0.1% (w/v) BSA). Dilution series were made in a polystyrene (non-binding) low-volume Corning Black Round Bottom 384-well plates (Corning 4514 or 4511).
Measurements were performed directly after plate preparation, using a Tecan Infinite F500 plate reader at room temperature (lex: 485 ± 20 nm; lem: 535 ± 25 nm; mirror: Dichroic 510; flashes: 20; integration […]

[1] = Table S5, ITC Kd / Kd of peptide 1, first unlabelled line (replicate 1)
[2] = Table S5, ITC Kd / Kd of peptide 1, second unlabelled line (replicate 2)
[3] = Table S5, ITC Kd of peptide divided by Kd of peptide 1, mean of n = 2
[4] = Table S5, ΔG minus ΔG of peptide 1, ITC, first unlabelled line (replicate 1)
[5] = Table S5, ΔG minus ΔG of peptide 1, ITC, second unlabelled line (replicate 2)
[6] = Table S5, ΔG of peptide minus ΔG of peptide 1, ITC, mean of n = 2
[7] = ITC, average of two runs, read-out: Kd
[8] = Table S6 (unit given in Fig. 4 legend), ITC, average of two runs
[9] = Table S6, ITC, average of two runs

Compound | Fold change to 1 [1] | Fold change to 1 [2] | ΔG (Table S5, ITC, mean of n = 2) [kcal/mol] | ΔG (Table S5, ITC, replicate 1) [kcal/mol] | ΔG (Table S5, ITC, replicate 2) [kcal/mol] | ΔΔG to 1 [4] [kcal/mol] | ΔΔG to 1 [5] [kcal/mol] | ΔΔG to 1 [6] [kcal/mol] | Kd [7] [nM] | Kd (ITC, run 1) | Kd (ITC, run 2) | ΔH [8] | -TΔS [9] | ΔG [9] | -TΔS (Table S6, ITC, run 1) | ΔG (Table S6, ITC, run 1) | ΔH (Table S6, ITC, run 1) | -TΔS (Table S6, ITC, run 2) | ΔG (Table S6, ITC, run 2) | ΔH (Table S6, ITC, run 2) | further results
CCC[C@H](NC(=O)[C@H](N)CCCCN)C(=O)N[C@@H](Cc1ccc([N+](=O)[O-])cc1)C(=O)NC(Cc1cscn1)C(=O)N[C@@H](COP(=O)(O)O)C(=O)N[C@@H](Cc1ccc(O)cc1)C(=O)N[C@@H](CO)CC(=O)NCCC(=O)N[C@@H](Cc1ccc([N+](=O)[O-])cc1)C(=O)N[C@@H](CCCCN)C(N)=O (stereo partly drawn) [4a] (H-[dK][Nva][Phe(4-NO2)][ξAla(4-thiazolyl)][pS]Y[β3hS][βAla][Phe(4-NO2)]K-NH2; N-terminus and C-terminus assumed) | 2.8 | 1.3 | -9.6 | -9.4 | -9.8 | 0.6 | 0.2 | 0.4 | 93.6 | 1,26E-07 M | 6,09E-08 M | -6,64 kcal mol^-1 | -2,99 kcal mol^-1 | -9,63 kcal mol^-1 | -3,582 kcal mol^-1 | -9,411 kcal mol^-1 | -5,83 kcal mol^-1 | -2,393 kcal mol^-1 | -9,844 kcal mol^-1 | -7,45 kcal mol^-1 | Fold change to 1 [3]: 2.1
CCC[C@H](NC(=O)[C@H](N)CCCCN)C(=O)N[C@@H](Cc1ccc([N+](=O)[O-])cc1)C(=O)NC(Cc1cscn1)C(=O)N[C@@H](COP(=O)(O)O)C(=O)N[C@@H](Cc1ccc([N+](=O)[O-])cc1)C(=O)N[C@@H](CO)CC(=O)NCCC(=O)N[C@@H](Cc1ccc(O)cc1)C(=O)N[C@@H](CCCCN)C(N)=O (stereo partly drawn) [5a] (H-[dK][Nva][Phe(4-NO2)][ξAla(4-thiazolyl)][pS][Phe(4-NO2)][β3hS][βAla]YK-NH2; N-terminus and C-terminus assumed) |  |  | -7.8 | -7.9 | -7.6 | 2.1 | 2.4 | 2.2 | 2060 | 1,55E-06 M | 2,57E-06 M | -5,21 kcal mol^-1 | -2,57 kcal mol^-1 | -7,78 kcal mol^-1 | -1,834 kcal mol^-1 | -7,925 kcal mol^-1 | -6,091 kcal mol^-1 | -3,299 kcal mol^-1 | -7,626 kcal mol^-1 | -4,328 kcal mol^-1 | 
CCC[C@H](NC(=O)[C@H](N)CCCCN)C(=O)N[C@@H](Cc1ccc([N+](=O)[O-])cc1)C(=O)NC(Cc1cscn1)C(=O)N[C@@H](COP(=O)(O)O)C(=O)N[C@@H](Cc1ccc([N+](=O)[O-])cc1)C(=O)NC(CO)CC(=O)NCCC(=O)N[C@@H](Cc1ccc([N+](=O)[O-])cc1)C(=O)N[C@@H](CCCCN)C(N)=O (stereo partly drawn) [compound 1] (H-[dK][Nva][Phe(4-NO2)][ξAla(4-thiazolyl)][pS][Phe(4-NO2)][ξβ3hS][βAla][Phe(4-NO2)]K-NH2) |  |  | -10.0 | -10.0 | -10.0 |  |  |  |  |  |  | -10,71 kcal mol^-1 | 0,68 kcal mol^-1 | -10,03 kcal mol^-1 | 0,933 kcal mol^-1 | -10,03 kcal mol^-1 | -10,96 kcal mol^-1 | 0,426 kcal mol^-1 | -10,02 kcal mol^-1 | -10,45 kcal mol^-1 | free binding energy ΔG (ITC) (ITC): -10.0 kcal/mol; ΔH (ITC) (Table S1 (unit given in Fig. 4 legend), ITC, mean of n = 2): -10.7 kcal/mol; -TΔS (ITC) (Table S1, ITC, mean of n = 2): 0.7 kcal/mol; ΔG (ITC) (Table S1, ITC, mean of n = 2): -10.0 kcal/mol; -TΔS (ITC) (Table S1, ITC, replicate 1): 0.9 kcal/mol; KD (ITC) (Table S1, ITC, replicate 1): 44.7 nM; ΔG (ITC) (Table S1, ITC, replicate 1): -10.0 kcal/mol; ΔH (ITC) (Table S1, ITC, replicate 1): -11.0 kcal/mol; -TΔS (ITC) (Table S1, ITC, replicate 2): 0.4 kcal/mol; KD (ITC) (Table S1, ITC, replicate 2): 45.3 nM; ΔG (ITC) (Table S1, ITC, replicate 2): -10.0 kcal/mol; ΔH (ITC) (Table S1, ITC, replicate 2): -10.5 kcal/mol
CCC[C@H](NC(=O)[C@H](N)CCCCN)C(=O)N[C@@H](Cc1ccc([N+](=O)[O-])cc1)C(=O)N[C@@H](C)C(=O)N[C@@H](COP(=O)(O)O)C(=O)N[C@@H](Cc1ccc([N+](=O)[O-])cc1)C(=O)N[C@@H](CO)CC(=O)NCCC(=O)N[C@@H](Cc1ccc([N+](=O)[O-])cc1)C(=O)N[C@@H](CCCCN)C(N)=O [3a] (H-[dK][Nva][Phe(4-NO2)]A[pS][Phe(4-NO2)][β3hS][βAla][Phe(4-NO2)]K-NH2; N-terminus and C-terminus assumed) | 2.0 | 1.5 | -9.7 | -9.6 | -9.8 | 0.4 | 0.3 | 0.3 | 79.1 | 8,86E-08 M | 6,97E-08 M | -7,40 kcal mol^-1 | -2,29 kcal mol^-1 | -9,69 kcal mol^-1 | -1,624 kcal mol^-1 | -9,622 kcal mol^-1 | -7,998 kcal mol^-1 | -2,955 kcal mol^-1 | -9,764 kcal mol^-1 | -6,809 kcal mol^-1 | Fold change to 1 [3]: 1.8
